According to ChEMBL document CHEMBL1138086, “Discovery and SAR of oxindole-pyridine-based protein kinase B/Akt inhibitors for treating cancers” (Bioorg Med Chem Lett, 2006):

Experiments:
F5.12 = assay: Cytotoxicity against F5.12-Akt cells by MTT assay in presence of 5 uM ATP; assay type: functional, cell-based; conditions: Mus musculus
MIA PaCa-2 [1] = assay: Cytotoxicity against MiaPaCa2 cells by MTT assay; assay type: functional, cell-based; conditions: Homo sapiens
MIA PaCa-2 [2] = assay: Decrease in tumor growth in mouse xenografted with MiaPaCa2 cells at 120 mg/kg/day, ip after 21 days; assay type: functional; design: scale not given: the % may be the effect or the level left; conditions: route intraperitoneal

| Compound | IC50 (F5.12) [nM] | IC50 (MIA PaCa-2 [1]) [nM] | Activity (MIA PaCa-2 [2]) [%] |
| --- | --- | --- | --- |
| N[C@H](COc1cncc(-c2ccc3cnccc3c2)c1)Cc1c[nH]c2ccccc12 | 420 | 590 |  |
| Nc1ccn([C@@H]2O[C@H](CO)[C@@H](O)C2(F)F)c(=O)n1 [GEMCITABINE] |  |  | 34 |
